# Source: patent US5681954A, “Piperazine derivatives” (Daiichi Pharmaceutical Co., Ltd., priority 1993, dated 1997)
# Columns and labels:
# [1] = molecular target: T1, Ca/Calmodulin-Dependent PDE (Bos taurus, UniProt P62157); assay: Calmodulin (CaM) inhibitory activity: inhibition of CaM-potentiated cyclic nucleotide phosphodiesterase (PDE); assay type: biochemical; conditions: CaM and PDE from bovine brain, [3H]-cGMP, 30° C., 10 minutes, pH 7.5; read-out: IC50 (concentration showing 50% inhibition of PDE activity potentiated by CaM)
# T1 construct: CaM from bovine brain; from tissue; host or cells: bovine brain
# [2] = system: Nitrogen-induced Hypoxia Model in Mouse; assay: Activity on Nitrogen-induced Hypoxia Model in Mouse; assay type: in vivo; conditions: 30 mg/kg, p.o., 60 minutes before nitrogen, over control group (100%)
# Experimental: Nine to ten mice per group were each orally given […] of a test compound. After 60 minutes from the administration, each mouse was put in a 500 ml-volume transparent container having a vent hole; and nitrogen gas was introduced into the container at a rate of 5000 ml/min. The time from the start of nitrogen introduction to respiratory standstill was measured, and a rate of increase of the time over that of a control group (100%) was obtained.
IC50 [1],Compound,Rate of Increase of Survival Time [2]
5.5 µM,"COc1cc2c(CCN3CCN(c4cccc(Cl)c4C)CC3)nn(Cc3c[nH]cn3)c2cc1OC [Example 23, 3-(2-(4-(3-Chloro-2-methylphenyl)-1-piperazinyl)ethyl)-5,6-dimethoxy-1-(4-imidazolylmethyl)-1H-indazole]",–
9.4 µM,COc1cc2[nH]nc(CCN3CCN(c4cccc(Cl)c4C)CC3)c2cc1OC [Example 81],–

Compound,IC50 [1],Rate of Increase of Survival Time [2]
"COc1ccc(Cn2nc(CCN3CCN(c4cccc(Cl)c4C)CC3)c3cc(OC)c(OC)cc32)cc1OC [Example 17, 3-(2-(4-(3-Chloro-2-methylphenyl)-1-piperazinyl)ethyl)-5,6-dimethoxy-1-(3,4-dimethoxybenzyl)-1H-indazole]",3.1 µM,19.2%
